Laboratory results reported in patent US20230348376A1 (TEIJIN PHARMA LIMITED, priority 2020, published 2023).

Each molecule was assayed against T1, human VDR (Homo sapiens, UniProt P11473) (assay: Evaluation of VDR transcription activity in human osteoblasts (HOS cells), luciferase reporter). Details: Activity (EC50, VDR transcription activity), HOS cells transfected with human VDR, human RXRα and DR3 luciferase reporter; 21 hours.
T1 sequence (P11473 1-427): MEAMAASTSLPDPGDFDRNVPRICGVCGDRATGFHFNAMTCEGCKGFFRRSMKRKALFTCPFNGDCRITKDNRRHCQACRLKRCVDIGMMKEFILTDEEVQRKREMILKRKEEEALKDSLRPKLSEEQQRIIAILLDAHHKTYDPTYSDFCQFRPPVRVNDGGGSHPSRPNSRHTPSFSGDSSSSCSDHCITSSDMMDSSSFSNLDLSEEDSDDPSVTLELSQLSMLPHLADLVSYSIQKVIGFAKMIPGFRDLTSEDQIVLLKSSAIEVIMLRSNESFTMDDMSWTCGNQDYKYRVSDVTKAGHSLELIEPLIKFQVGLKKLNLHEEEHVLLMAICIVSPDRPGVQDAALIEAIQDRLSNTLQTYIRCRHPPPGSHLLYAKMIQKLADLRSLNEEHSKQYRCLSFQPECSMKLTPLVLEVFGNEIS
T1 sequence (P19793 1-462 partner): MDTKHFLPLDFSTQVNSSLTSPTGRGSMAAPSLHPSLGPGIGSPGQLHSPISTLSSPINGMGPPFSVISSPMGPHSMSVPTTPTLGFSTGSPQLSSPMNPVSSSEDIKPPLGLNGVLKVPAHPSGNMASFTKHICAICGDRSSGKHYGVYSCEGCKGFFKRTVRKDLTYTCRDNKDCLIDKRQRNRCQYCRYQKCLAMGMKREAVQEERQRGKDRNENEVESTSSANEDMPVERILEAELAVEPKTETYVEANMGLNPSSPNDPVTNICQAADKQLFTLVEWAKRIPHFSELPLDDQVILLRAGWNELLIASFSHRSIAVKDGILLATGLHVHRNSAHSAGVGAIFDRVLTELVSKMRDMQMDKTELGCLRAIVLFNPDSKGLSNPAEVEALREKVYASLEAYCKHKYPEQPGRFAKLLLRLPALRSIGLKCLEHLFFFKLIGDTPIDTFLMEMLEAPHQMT
An EC50 of 0.1 to 1 µM was found for `C=C1/C(=C\C=C2/CCC[C@]3(C)[C@@H]([C@H](C)CN4CCC(C(F)F)CC4)CC[C@@H]23)C[C@@H](O)[C@H](C)[C@@H]1O` [Compound C016, (1R,2S,3S,Z)-5-(2-((1R,3aS,7aR,E)-1-((S)-1-(4-(difluoromethyl)piperidin-1-yl)propan-2-yl)-7a-methyloctahydro-4H-inden-4-ylidene)ethylidene)-2-methyl-4-methylenecyclohexane-1,3-diol] in this work.
An EC50 of 0.01 to 0.1 µM was found for `C=C1/C(=C\C=C2/CCC[C@]3(C)[C@@H]([C@@H](C)CN4CCC(C(F)F)CC4)CC[C@@H]23)C[C@@H](O)C[C@@H]1O` [Compound C017, (1R,3S,Z)-5-(2-((1R,3aS,7aR,E)-1-((R)-1-(4-(difluoromethyl)piperidin-1-yl)propan-2-yl)-7a-methyloctahydro-4H-inden-4-ylidene)ethylidene)-4-methylenecyclohexane-1,3-diol] in this work.
An EC50 of 0.01 to 0.1 µM was found for `C[C@@H](CN1CCC(C(F)F)CC1)[C@H]1CC[C@H]2/C(=C/C=C3C[C@@H](O)C[C@H](O)C3)CCC[C@]12C` [Compound C018, (1R,3R)-5-(2-((1R,3aS,7aR,E)-1-((R)-1-(4-(difluoromethyl)piperidin-1-yl)propan-2-yl)-7a-methyloctahydro-4H-inden-4-ylidene)ethylidene)cyclohexane-1,3-diol] in this work.
An EC50 of 0.001 to 0.01 µM was found for `C=C1/C(=C\C=C2/CCC[C@]3(C)[C@@H]([C@@H](C)CN4CCC(C(F)F)CC4)CC[C@@H]23)C[C@@H](O)[C@H](C)[C@@H]1O` [Compound C020, (1R,2S,3S,Z)-5-(2-((1R,3aS,7aR,E)-1-((R)-1-(4-(difluoromethyl)piperidin-1-yl)propan-2-yl)-7a-methyloctahydro-4H-inden-4-ylidene)ethylidene)-2-methyl-4-methylenecyclohexane-1,3-diol] in this work.
An EC50 of 0.1 to 1 µM was found for `C=C1/C(=C\C=C2/CCC[C@]3(C)[C@@H]([C@H](C)CN4CCC(O)(C(F)F)CC4)CC[C@@H]23)C[C@@H](O)C[C@@H]1O` [Compound C021, (1R,3S,Z)-5-(2-((1R,3aS,7aR,E)-1-((S)-1-(4-(difluoromethyl)-4-hydroxypiperidin-1-yl)propan-2-yl)-7a-methyloctahydro-4H-inden-4-ylidene)ethylidene)-4-methylenecyclohexane-1,3-diol] in this work.
An EC50 of 0.01 to 0.1 µM was found for `C=C1[C@H](O)CC(=C/C=C2\CCC[C@]3(C)[C@@H]([C@H](C)CN4CCC(O)(C(F)F)CC4)CC[C@@H]23)C[C@H]1O` [Compound C022, (1R,3R)-5-(2-((1R,3aS,7aR,E)-1-((S)-1-(4-(difluoromethyl)-4-hydroxypiperidin-1-yl)propan-2-yl)-7a-methyloctahydro-4H-inden-4-ylidene)ethylidene)-2-methylenecyclohexane-1,3-diol] in this work.
An EC50 of 0.001 to 0.01 µM was found for `C=C1/C(=C\C=C2/CCC[C@]3(C)[C@@H]([C@H](C)CN4CCC(O)(C(F)F)CC4)CC[C@@H]23)C[C@@H](O)[C@H](C)[C@@H]1O` [Compound C023, (1R,2S,3S,Z)-5-(2-((1R,3aS,7aR,E)-1-((S)-1-(4-(difluoromethyl)-4-hydroxypiperidin-1-yl)propan-2-yl)-7a-methyloctahydro-4H-inden-4-ylidene)ethylidene)-2-methyl-4-methylenecyclohexane-1,3-diol] in this work.
An EC50 of 0.001 to 0.01 µM was found for `C=C1/C(=C\C=C2/CCC[C@]3(C)[C@@H]([C@@H](C)CN4CCC(O)(C(F)F)CC4)CC[C@@H]23)C[C@@H](O)C[C@@H]1O` [Compound C024, (1R,3S,Z)-5-(2-((1R,3aS,7aR,E)-1-((R)-1-(4-(difluoromethyl)-4-hydroxypiperidin-1-yl)propan-2-yl)-7a-methyloctahydro-4H-inden-4-ylidene)ethylidene)-4-methylenecyclohexane-1,3-diol] in this work.
An EC50 of 0.01 to 0.1 µM was found for `C[C@@H](CN1CCC(O)(C(F)F)CC1)[C@H]1CC[C@H]2/C(=C/C=C3C[C@@H](O)C[C@H](O)C3)CCC[C@]12C` [Compound C025, (1R,3R)-5-(2-((1R,3aS,7aR,E)-1-((R)-1-(4-(difluoromethyl)-4-hydroxypiperidin-1-yl)propan-2-yl)-7a-methyloctahydro-4H-inden-4-ylidene)ethylidene)cyclohexane-1,3-diol] in this work.
An EC50 of 0.001 to 0.01 µM was found for `C=C1[C@H](O)CC(=C/C=C2\CCC[C@]3(C)[C@@H]([C@@H](C)CN4CCC(O)(C(F)F)CC4)CC[C@@H]23)C[C@H]1O` [Compound C026, (1R,3R)-5-(2-((1R,3aS,7aR,E)-1-((R)-1-(4-(difluoromethyl)-4-hydroxypiperidin-1-yl)propan-2-yl)-7a-methyloctahydro-4H-inden-4-ylidene)ethylidene)-2-methylenecyclohexane-1,3-diol] in this work.
An EC50 of 0.1 to 1 µM was found for `C=C1/C(=C\C=C2/CCC[C@]3(C)[C@@H]([C@@H](C)CN4CCC(C)(O)CC4)CC[C@@H]23)C[C@@H](O)C[C@@H]1O` [Compound C029, (1R,3S,Z)-5-(2-((1R,3aS,7aR,E)-1-((R)-1-(4-hydroxy-4-methylpiperidin-1-yl)propan-2-yl)-7a-methyloctahydro-4H-inden-4-ylidene)ethylidene)-4-methylenecyclohexane-1,3-diol] in this work.
An EC50 of 0.01 to 0.1 µM was found for `C=C1[C@H](O)CC(=C/C=C2\CCC[C@]3(C)[C@@H]([C@H](C)CN4CCC[C@@](C)(O)C4)CC[C@@H]23)C[C@H]1O` [Compound C040, (1R,3R)-5-(2-((1R,3aS,7aR,E)-1-((S)-1-((R)-3-hydroxy-3-methylpiperidin-1-yl)propan-2-yl)-7a-methyloctahydro-4H-inden-4-ylidene)ethylidene)-2-methylenecyclohexane-1,3-diol] in this work.
An EC50 of under 0.001 µM was found for `C=C1[C@H](O)CC(=C/C=C2\CCC[C@]3(C)[C@@H]([C@H](C)CN4CCC[C@](C)(O)C4)CC[C@@H]23)C[C@H]1O` [Compound C041, (1R,3R)-5-(2-((1R,3aS,7aR,E)-1-((S)-1-((S)-3-hydroxy-3-methylpiperidin-1-yl)propan-2-yl)-7a-methyloctahydro-4H-inden-4-ylidene)ethylidene)-2-methylenecyclohexane-1,3-diol] in this work.
An EC50 of 0.01 to 0.1 µM was found for `C=C1/C(=C\C=C2/CCC[C@]3(C)[C@@H]([C@H](C)CN4CCC[C@H](C(F)F)C4)CC[C@@H]23)C[C@@H](O)C[C@@H]1O` [Compound C048, (1R,3S,Z)-5-(2-((1R,3aS,7aR,E)-1-((S)-1-((S)-3-(difluoromethyl)piperidin-1-yl)propan-2-yl)-7a-methyloctahydro-4H-inden-4-ylidene)ethylidene)-4-methylenecyclohexane-1,3-diol] in this work.
An EC50 of 0.001 to 0.01 µM was found for `C=C1[C@H](O)CC(=C/C=C2\CCC[C@]3(C)[C@@H]([C@H](C)CN4CCC[C@H](C(F)F)C4)CC[C@@H]23)C[C@H]1O` [Compound C049, (1R,3R)-5-(2-((1R,3aS,7aR,E)-1-((S)-1-((S)-3-(difluoromethyl)piperidin-1-yl)propan-2-yl)-7a-methyloctahydro-4H-inden-4-ylidene)ethylidene)-2-methylenecyclohexane-1,3-diol] in this work.
An EC50 of 0.001 to 0.01 µM was found for `C=C1/C(=C\C=C2/CCC[C@]3(C)[C@@H]([C@H](C)CN4CCC[C@H](C(F)F)C4)CC[C@@H]23)C[C@@H](O)[C@H](C)[C@@H]1O` [Compound C050, (1R,2S,3 S,Z)-5-(2-((1R,3aS,7aR,E)-1-((S)-1-((S)-3-(difluoromethyl)piperidin-1-yl)propan-2-yl)-7a-methyloctahydro-4H-inden-4-ylidene)ethylidene)-2-methyl-4-methylenecyclohexane-1,3-diol] in this work.
An EC50 of 0.1 to 1 µM was found for `C[C@H](CN1CCC[C@H](CC(F)F)C1)[C@H]1CC[C@H]2/C(=C/C=C3C[C@@H](O)C[C@H](O)C3)CCC[C@]12C` [Compound C051, (1R,3R)-5-(2-((1R,3aS,7aR,E)-1-((S)-1-((R)-3-(2,2-difluoroethyl)piperidin-1-yl)propan-2-yl)-7a-methyloctahydro-4H-inden-4-ylidene)ethylidene)cyclohexane-1,3-diol] in this work.
An EC50 of 0.001 to 0.01 µM was found for `C=C1[C@H](O)CC(=C/C=C2\CCC[C@]3(C)[C@@H]([C@H](C)CN4CCC[C@H](C(C)(F)F)C4)CC[C@@H]23)C[C@H]1O` [Compound C053, (1R,3R)-5-(2-((1R,3aS,7aR,E)-1-((S)-1-((S)-3-(1,1-difluoroethyl)piperidin-1-yl)propan-2-yl)-7a-methyloctahydro-4H-inden-4-ylidene)ethylidene)-2-methylenecyclohexane-1,3-diol] in this work.
An EC50 of 0.01 to 0.1 µM was found for `C=C1[C@H](O)CC(=C/C=C2\CCC[C@]3(C)[C@@H]([C@@H](C)CN4CCC(CC(F)F)CC4)CC[C@@H]23)C[C@H]1O` [Compound C056, (1R,3R)-5-(2-((1R,3aS,7aR,E)-1-((R)-1-(4-(2,2-difluoroethyl)piperidin-1-yl)propan-2-yl)-7a-methyloctahydro-4H-inden-4-ylidene)ethylidene)-2-methylenecyclohexane-1,3-diol] in this work.
